Laboratory results: ChEMBL document CHEMBL4321841, “Development of small molecule inhibitors targeting NLRP3 inflammasome pathway for inflammatory diseases” (Eur J Med Chem, 2020)

How the values were obtained:
[1] = biological target: NACHT, LRR and PYD domains-containing protein 3 (Mus musculus) (UniProt Q8R4B8); test: Inhibition of NLRP3 inflammasome activation in LPS-primed mouse J774A.1 cells assessed as reduction in IL-1beta level at 10 uM preincubated for 1 hr followed by addition of ATP and measured after 30 mins by ELISA method relative to control
Sequence of NACHT, LRR and PYD domains-containing protein 3 (Mus musculus) (Q8R4B8 whole entry, the tested form may be a part): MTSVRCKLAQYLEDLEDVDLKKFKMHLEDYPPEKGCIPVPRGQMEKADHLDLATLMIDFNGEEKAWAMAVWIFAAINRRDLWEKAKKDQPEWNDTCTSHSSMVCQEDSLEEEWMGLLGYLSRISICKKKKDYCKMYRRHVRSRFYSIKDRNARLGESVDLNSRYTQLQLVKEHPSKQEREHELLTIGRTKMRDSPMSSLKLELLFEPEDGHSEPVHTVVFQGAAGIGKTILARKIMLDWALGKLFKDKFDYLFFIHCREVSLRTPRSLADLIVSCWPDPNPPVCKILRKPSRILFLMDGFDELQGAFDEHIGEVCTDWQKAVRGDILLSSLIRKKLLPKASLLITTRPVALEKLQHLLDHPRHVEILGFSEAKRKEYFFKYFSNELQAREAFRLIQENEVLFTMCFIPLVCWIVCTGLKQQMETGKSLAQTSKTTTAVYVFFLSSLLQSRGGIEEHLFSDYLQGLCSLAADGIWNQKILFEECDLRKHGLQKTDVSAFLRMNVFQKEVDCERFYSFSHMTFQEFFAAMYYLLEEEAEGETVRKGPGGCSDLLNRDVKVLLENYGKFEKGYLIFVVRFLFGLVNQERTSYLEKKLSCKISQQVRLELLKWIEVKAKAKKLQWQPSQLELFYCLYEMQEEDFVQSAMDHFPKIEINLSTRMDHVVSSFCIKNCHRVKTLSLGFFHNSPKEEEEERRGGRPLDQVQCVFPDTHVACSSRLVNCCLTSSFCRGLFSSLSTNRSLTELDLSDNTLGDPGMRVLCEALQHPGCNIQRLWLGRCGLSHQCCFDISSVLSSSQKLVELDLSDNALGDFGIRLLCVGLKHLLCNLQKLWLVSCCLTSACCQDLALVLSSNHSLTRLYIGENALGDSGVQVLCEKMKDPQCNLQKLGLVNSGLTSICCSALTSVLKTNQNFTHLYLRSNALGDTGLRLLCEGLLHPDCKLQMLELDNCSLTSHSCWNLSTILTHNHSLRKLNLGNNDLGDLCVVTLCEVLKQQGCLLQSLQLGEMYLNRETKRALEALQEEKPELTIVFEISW

[2] = biological target: T1, NACHT, LRR and PYD domains-containing protein 3 (Mus musculus, UniProt Q8R4B8); test: Inhibition of NLRP3 inflammasome activation in LPS-primed mouse bone marrow derived macrophages assessed as reduction in IL-1beta level preincubated for 30 mins followed by addition of ATP and measured after 1 hr by ELISA method
T1 sequence (Q8R4B8 whole entry, the tested form may be a part): as above

[3] = biological target: T2, NACHT, LRR and PYD domains-containing protein 3 (Homo sapiens, UniProt Q96P20); test: Inhibition of NLRP3 inflammasome activation in LPS-primed human THP1 cells assessed as reduction in IL-1beta level at 20 uM preincubated for 1 hr followed by addition of ATP and measured after 3 hrs by ELISA method relative to control
T2 sequence (Q96P20 whole entry, the tested form may be a part): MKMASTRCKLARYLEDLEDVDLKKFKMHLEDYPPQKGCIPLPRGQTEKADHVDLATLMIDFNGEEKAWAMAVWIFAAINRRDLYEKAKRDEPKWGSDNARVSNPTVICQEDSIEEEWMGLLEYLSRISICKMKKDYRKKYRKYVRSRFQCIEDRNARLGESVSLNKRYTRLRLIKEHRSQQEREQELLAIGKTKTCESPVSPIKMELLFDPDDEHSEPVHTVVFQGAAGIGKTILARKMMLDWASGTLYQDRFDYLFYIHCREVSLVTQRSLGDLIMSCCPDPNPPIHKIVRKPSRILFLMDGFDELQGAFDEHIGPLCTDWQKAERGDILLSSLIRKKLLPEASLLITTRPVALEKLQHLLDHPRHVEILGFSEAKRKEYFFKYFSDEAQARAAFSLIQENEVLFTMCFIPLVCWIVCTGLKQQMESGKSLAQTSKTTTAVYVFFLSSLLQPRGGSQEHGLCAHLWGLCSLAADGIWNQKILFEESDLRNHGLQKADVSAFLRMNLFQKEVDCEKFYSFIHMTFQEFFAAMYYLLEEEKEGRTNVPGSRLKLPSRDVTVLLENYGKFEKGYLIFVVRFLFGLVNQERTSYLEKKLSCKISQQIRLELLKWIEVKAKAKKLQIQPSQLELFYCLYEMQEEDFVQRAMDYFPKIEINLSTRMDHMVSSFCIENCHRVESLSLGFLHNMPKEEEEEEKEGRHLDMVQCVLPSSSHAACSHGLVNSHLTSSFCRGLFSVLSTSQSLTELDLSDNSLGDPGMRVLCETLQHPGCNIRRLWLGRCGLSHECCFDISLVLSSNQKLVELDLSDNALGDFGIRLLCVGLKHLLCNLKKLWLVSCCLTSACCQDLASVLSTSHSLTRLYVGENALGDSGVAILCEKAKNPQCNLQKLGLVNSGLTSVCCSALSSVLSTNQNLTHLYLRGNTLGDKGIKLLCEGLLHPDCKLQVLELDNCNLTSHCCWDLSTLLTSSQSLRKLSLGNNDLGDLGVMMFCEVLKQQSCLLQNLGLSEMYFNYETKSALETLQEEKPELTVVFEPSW

[4] = biological target: T2, NACHT, LRR and PYD domains-containing protein 3; test: Inhibition of NLRP3 inflammasome activation in PMA differentiated human THP1 cells assessed as reduction in IL-1beta level at 10 uM preincubated for 30 mins followed by addition of MSU and meaured after 6 hrs by ELISA method relative to control
[5] = biological target: T2, NACHT, LRR and PYD domains-containing protein 3; test: Inhibition of NLRP3 inflammasome activation in PMA differentiated human THP1 cells assessed as reduction in IL-1beta level preincubated for 30 mins followed by addition of MSU and meaured after 6 hrs by ELISA method relative to control
[6] = biological target: T2, NACHT, LRR and PYD domains-containing protein 3; test: Inhibition of NLRP3 inflammasome activation in LPS-primed human THP1 cells assessed as reduction in IL-1beta level preincubated for 1 hr followed by addition of ATP and measured after 1 hr by ELISA method
[7] = biological target: T1, NACHT, LRR and PYD domains-containing protein 3; test: Inhibition of NLRP3 inflammasome activation in LPS-primed C57BL/6 mouse bone marrow derived macrophages preincubated for 15 mins followed by addition of ATP and measured after 1 hr by ELISA
[8] = biological target: T1, NACHT, LRR and PYD domains-containing protein 3; test: Inhibition of NLRP3 inflammasome activation in LPS-primed mouse NG5 cells assessed as reduction in IL-1beta level incubated for 15followed by addition of ATP by ELISA method; format: cell-based
THP-1 [9] = test: Inhibition of pyroptosis in PMA-differentiated and LPSprimed human THP1 cells assessed as LDH activity at 10 uM preincubated for 1 hr followed by addition of ATP and measured after 1 hr by CytoTox 96 Non-Radioactive Cytotoxicity Assay relative to control; format: functional
[10] = biological target: T2, NACHT, LRR and PYD domains-containing protein 3; test: Inhibition of recombinant human NLRP3 ATPase assessed as reduction in ADP formation preincubated for 10 mins followed by ATP addition and measured after 40 mins by ADP-Glo assay
THP-1 [11] = test: Inhibition of pyroptosis in PMA-differentiated and LPS-primed human THP1 cells assessed as LDH activity preincubated for 1 hr followed by addition of ATP and measured after 1 hr by CytoTox 96 Non-Radioactive Cytotoxicity Assay; format: functional, cell-based
[12] = biological target: T2, NACHT, LRR and PYD domains-containing protein 3; test: Inhibition of NLRP3 inflammasome activation in LPS-stimulated human THP1 cells assessed as reduction in IL-1beta level at 10 uM preincubated for 1 hr followed by addition of ATP and measured after 1 hr by ELISA method relative to control
[13] = biological target: T1, NACHT, LRR and PYD domains-containing protein 3; test: Inhibition of NLRP3 inflammasome activation in mouse J774A.1 cells assessed as reduction in IL-1beta level preincubated for 2 hrs followed by LPS-stimulation and further incubated for 5.5 hrs and subsequently ATP addition and measured after 30 mins by ELISA method; format: cell-based
[14] = biological target: T1, NACHT, LRR and PYD domains-containing protein 3; test: Inhibition of NLRP3 inflammasome activation in LPS-primed mouse J774A.1 cells assessed as reduction in IL-1beta level preincubated for 1 hr followed by addition of ATP and measured after 30 mins by ELISA method
Peroxiredoxin-1 = biological target: T3, Peroxiredoxin-1 (Homo sapiens, UniProt Q06830); test: Inhibition of PRDX1 in human PMA-differentiated LPS-stimulated THP1 cells assessed as reduction in NLRP3 inflammasome activation preincubated for 1 hr followed by addition of ATP and mesured after 1 hr by ELISA
T3 sequence (Q06830 whole entry): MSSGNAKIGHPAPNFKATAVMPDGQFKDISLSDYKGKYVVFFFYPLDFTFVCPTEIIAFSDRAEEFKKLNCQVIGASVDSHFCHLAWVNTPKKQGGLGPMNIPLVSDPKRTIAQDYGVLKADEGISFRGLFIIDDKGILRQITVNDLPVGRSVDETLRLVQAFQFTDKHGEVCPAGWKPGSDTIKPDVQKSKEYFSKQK

[15] = Half life in C57BL/6 mouse plasma at 3 mg/kg, iv or 20 mg/kg, po; format: ADME, organism-based; conditions: in vivo
[16] = biological target: T1, NACHT, LRR and PYD domains-containing protein 3; test: Inhibition of NLRP3 inflammasome activation in LPS-primed mouse bone marrow derived macrophages incubated for 1 hr followed by addition of ATP and measured after 1 hr by immunoblotting analysis
[17] = Cmax in mouse at 1000 mg, po administered once daily for 8 days; format: ADME, organism-based; parameters: dose 1000 mg, route oral; conditions: in vivo
[18] = biological target: T1, NACHT, LRR and PYD domains-containing protein 3; test: Inhibition of NLRP3 inflammasome activation in LPS-primed mouse J774A.1 cells assessed as reduction in IL-1beta level preincubated for 30 mins followed by addition of nigericin and measured after 40 mins by ELISA

**Q.** With `O=c1[nH]c(-c2ccc(C(F)(F)F)cc2)nc2ccccc12` as the compound, how does the inhibition [1] read?
**A.** 21.3%

**Q.** Which IC50 [2] does the source give for `CCC1=C(C)CN(C(=O)NCCc2ccc(S(=O)(=O)NC(=O)Nc3c4c(cc5c3CCC5)CCC4)cc2)C1=O` here?
**A.** 0.042 µM

**Q.** For `CCCCCCC/C=C/C(=O)CCc1ccc(O)c(OC)c1`, which inhibition [3] is on record?
**A.** 60.3%

**Q.** Which results are given for `O=c1cc(-c2ccc(O)cc2)oc2cc(O)cc(O)c12` [APIGENIN]?
**A.** inhibition [4]: 42.9%; IC50 [5]: 10 µM

**Q.** For `CCn1c(-c2ccccc2)nc2cc(C)ccc21`, which IC50 [6] is on record?
**A.** 10 µM

**Q.** For `Cc1cccc(Nc2ccccc2C(=O)O)c1C` [MEFENAMIC ACID], which IC50 [7] is on record?
**A.** 25 µM

**Q.** For `Cc1ccc(S(=O)(=O)/C=C/C#N)cc1`, which IC50 [8] is on record?
**A.** 12 µM

**Q.** With `C=C(Cc1ccccc1Cl)C(=O)NCCc1ccc(S(N)(=O)=O)cc1` as the compound, how does the inhibition at 10 µM (THP-1 [9]) read?
**A.** 45.8%

**Q.** What about the IC50 [10] of the same compound?
**A.** 74 µM

**Q.** What about the IC50 (THP-1 [11]) of the same compound?
**A.** 23.2 µM

**Q.** For `O=[N+]([O-])c1ccc2[nH]c(-c3cscn3)nc2c1`, which inhibition [12] is on record?
**A.** 30%

**Q.** For `COc1ccc(Cl)cc1C(=O)NCCc1ccc(S(=O)(=O)NO)cc1`, which IC50 [13] is on record?
**A.** 8.45 µM

**Q.** Which inhibition [1] does the source give for `COc1ccc(-c2nc(O)c3ccccc3n2)cc1` here?
**A.** 28.8%

**Q.** For `CCCCC/C=C/C(=O)CCc1ccc(O)c(OC)c1`, which inhibition [3] is on record?
**A.** 100%

**Q.** For `COc1ccc2c(c1)C(=O)N(c1ccccc1)C2=O`, which IC50 [14] is on record?
**A.** 5 µM

**Q.** For `O=c1cc(-c2ccc(Cl)c(Cl)c2)oc2ccccc12`, which inhibition [4] is on record?
**A.** 49.5%

**Q.** For `O=C1/C(=C/c2ccccn2)CNC/C1=C\c1ccccn1`, which IC50 (Peroxiredoxin-1) is on record?
**A.** 0.95 µM

**Q.** With `O=c1[nH]c(-c2ccc([N+](=O)[O-])cc2)nc2ccccc12` as the compound, how does the IC50 [14] read?
**A.** 5 µM

**Q.** With `CC(C)(O)c1coc(S(=O)(=O)NC(=O)Nc2c3c(cc4c2CCC4)CCC3)c1` as the compound, how does the t1/2 [15] read?
**A.** 3.27 h

**Q.** Which IC50 [16] does the source give for `CC1CC(=O)c2s/c(=N\C3CCCCC3)oc2C1` (centres undefined) here?
**A.** 1.28 µM

**Q.** With `c1cc2[nH]c(-c3cscn3)nc2cn1` as the compound, how does the inhibition [12] read?
**A.** 30%

**Q.** With `CS(=O)(=O)CCC#N` [DAPANSUTRILE] as the compound, how does the Cmax [17] read?
**A.** 311 µM

**Q.** What about the IC50 [18] of the same compound?
**A.** 0.001 µM
